From the NIST ThermoML archive (doi:10.1016/j.jct.2019.02.011)

Assay: xn = mol fraction of the nth substance listed
Conditions: Liquid, Vibrating tube method

COC(=O)OC [dimethyl carbonate] + CCCO
mass density [kg/m3]
Conditions | 100 kPa | 5000 kPa | 10000 kPa | 15000 kPa | 20000 kPa | 25000 kPa | 30000 kPa | 35000 kPa | 40000 kPa
298.15 K, x1 = 0.0273 | – | – | – | – | – | 824.63 | 827.8 | 830.69 | 833.7
298.15 K, x1 = 0.0506 | – | – | – | – | – | 831.37 | 834.55 | 837.44 | 840.46
298.15 K, x1 = 0.0755 | – | – | – | – | – | 838.51 | 841.73 | 844.68 | 847.74
298.15 K, x1 = 0.1007 | – | – | – | – | – | 845.6 | 848.88 | 851.87 | 854.94
298.15 K, x1 = 0.1495 | – | – | – | – | – | 859.5 | 862.83 | 865.84 | 868.95
298.15 K, x1 = 0.2003 | – | – | – | – | – | 873.75 | 877.1 | 880.17 | 883.35
298.15 K, x1 = 0.2529 | – | – | – | – | – | 888.37 | 891.77 | 894.9 | 898.11
298.15 K, x1 = 0.2993 | – | – | – | – | – | 901.23 | 904.69 | 907.88 | 911.12
298.15 K, x1 = 0.3497 | – | – | – | – | – | 915.04 | 918.51 | 921.76 | 925.01
298.15 K, x1 = 0.401 | – | – | – | – | – | 928.97 | 932.5 | 935.75 | 939.03
298.15 K, x1 = 0.4509 | – | – | – | – | – | 942.42 | 946 | 949.32 | 952.62
298.15 K, x1 = 0.5002 | – | – | – | – | – | 955.58 | 959.23 | 962.55 | 965.93
298.15 K, x1 = 0.5498 | – | – | – | – | 965.01 | 968.71 | 972.41 | 975.8 | 979.21
298.15 K, x1 = 0.5996 | – | – | – | – | 978.09 | 981.85 | 985.57 | 988.96 | 992.41
298.15 K, x1 = 0.6499 | – | – | – | – | 991.19 | 995.01 | 998.78 | 1002.23 | 1005.7
298.15 K, x1 = 0.7006 | – | – | – | – | 1004.45 | 1008.28 | 1012.06 | 1015.57 | 1019.07
298.15 K, x1 = 0.7471 | – | – | – | – | 1016.43 | 1020.32 | 1024.11 | 1027.63 | 1031.19
298.15 K, x1 = 0.7989 | – | – | – | – | 1029.72 | 1033.62 | 1037.46 | 1041.04 | 1044.59
298.15 K, x1 = 0.8491 | – | – | – | – | 1042.57 | 1046.53 | 1050.43 | 1054.02 | 1057.6
298.15 K, x1 = 0.8993 | – | – | – | – | 1055.43 | 1059.4 | 1063.31 | 1066.92 | 1070.52
298.15 K, x1 = 0.9249 | – | – | – | – | 1061.94 | 1065.92 | 1069.84 | 1073.44 | 1077.05
298.15 K, x1 = 0.9489 | – | – | – | – | 1067.96 | 1071.94 | 1075.86 | 1079.52 | 1083.13
298.15 K, x1 = 0.9743 | – | – | – | – | 1074.33 | 1078.36 | 1082.29 | 1085.95 | 1089.6
298.15 K, x1 = 1 | – | – | – | – | 1080.9 | 1084.89 | 1088.82 | 1092.44 | 1096.04
303.15 K, x1 = 0.0273 | 802.96 | 806.96 | 810.58 | 814.19 | 817.69 | 821.09 | 824.3 | – | –
303.15 K, x1 = 0.0506 | 809.34 | 813.38 | 817.06 | 820.71 | 824.27 | 827.72 | 830.93 | – | –
303.15 K, x1 = 0.0755 | 816.25 | 820.3 | 824.02 | 827.68 | 831.25 | 834.74 | 838.05 | – | –
303.15 K, x1 = 0.1007 | 823.16 | 827.26 | 831 | 834.7 | 838.32 | 841.82 | 845.13 | – | –
303.15 K, x1 = 0.1495 | 836.62 | 840.77 | 844.56 | 848.32 | 851.95 | 855.5 | 858.87 | – | –
303.15 K, x1 = 0.2003 | 850.48 | 854.68 | 858.53 | 862.39 | 866.08 | 869.69 | 873.1 | – | –
303.15 K, x1 = 0.2529 | 864.74 | 869 | 872.91 | 876.81 | 880.56 | 884.23 | 887.7 | – | –
303.15 K, x1 = 0.2993 | 877.26 | 881.57 | 885.49 | 889.45 | 893.25 | 896.97 | 900.44 | – | –
303.15 K, x1 = 0.3497 | 890.62 | 894.99 | 899.01 | 903.02 | 906.89 | 910.67 | 914.19 | – | –
303.15 K, x1 = 0.401 | 904.1 | 908.57 | 912.65 | 916.71 | 920.64 | 924.47 | 928.04 | – | –
303.15 K, x1 = 0.4509 | 917.2 | 921.72 | 925.81 | 929.92 | 933.91 | 937.75 | 941.37 | – | –
303.15 K, x1 = 0.5002 | 930.06 | 934.59 | 938.74 | 942.9 | 946.9 | 950.79 | 954.47 | – | –
303.15 K, x1 = 0.5498 | 942.89 | 947.47 | 951.68 | 955.89 | 959.95 | 963.85 | 967.53 | – | –
303.15 K, x1 = 0.5996 | 955.69 | 960.32 | 964.59 | 968.8 | 972.92 | 976.87 | 980.61 | – | –
303.15 K, x1 = 0.6499 | 968.54 | 973.22 | 977.56 | 981.82 | 985.95 | 989.96 | 993.75 | – | –
303.15 K, x1 = 0.7006 | 981.46 | 986.15 | 990.49 | 994.8 | 998.94 | 1003.01 | 1006.8 | – | –
303.15 K, x1 = 0.7471 | 993.16 | 997.9 | 1002.3 | 1006.66 | 1010.86 | 1014.93 | 1018.72 | – | –
303.15 K, x1 = 0.7989 | 1006.2 | 1010.99 | 1015.45 | 1019.82 | 1024.03 | 1028.15 | 1032 | – | –
303.15 K, x1 = 0.8491 | 1018.81 | 1023.65 | 1028.12 | 1032.54 | 1036.81 | 1040.99 | – | – | –
303.15 K, x1 = 0.8993 | 1031.43 | 1036.28 | 1040.81 | 1045.23 | 1049.51 | 1053.69 | – | – | –
303.15 K, x1 = 0.9249 | 1037.82 | 1042.67 | 1047.21 | 1051.62 | 1055.91 | 1060.1 | – | – | –
303.15 K, x1 = 0.9489 | 1043.76 | 1048.62 | 1053.16 | 1057.63 | 1061.92 | 1066.11 | – | – | –
303.15 K, x1 = 0.9743 | 1050.11 | 1054.97 | 1059.51 | 1063.98 | 1068.28 | 1072.47 | – | – | –
303.15 K, x1 = 1 | 1056.61 | 1061.47 | 1066.02 | 1070.49 | 1074.79 | 1078.99 | – | – | –
